PMC5344956 (Cancer Chemotherapy and Pharmacology, 2017)
Blank lines part the entries; values can stand above or below the molecule they belong to.

Tests used:
[1] = Metabolite characterization by LC/MS/MS in human plasma, urine, and feces; details: for Matrix (in which the metabolite was found): human plasma, urine, feces, LC/MS/MS
Description: The remaining eluate stream of 0.16 mL/min from the HPLC runs was diverted to the inlet of the mass spectrometer. The samples were analyzed using a heated electrospray ionization probe. Full-scan positive ion MS data were collected using Finnigan Exactive (MS^1) or Q-Exactive (MS^1 and MS^2) mass spectrometers (Thermo Fisher Scientific Inc.) Exact conditions are described in the Online Resource 3.
Finnigan Exactive or Q-Exactive mass spectrometers (Thermo Fisher Scientific Inc., San Jose, CA) were used to collect full scan MS^1 and MS^2 data.

[2] = Metabolite profiling of feces (HPLC-radiochromatography); type: in vivo, human; details: 0–144 h pool
Description: One-gram samples of the fecal homogenates were transferred to 50-mL polypropylene tubes, extracted with 4 mL of methanol, and centrifuged (4500g). The resulting residues were extracted three more times (once with 2 mL of methanol and twice with 1 mL of methanol containing 1% formic acid) and centrifuged. All supernatants were combined and evaporated under nitrogen, and the residue was reconstituted with 0.5 mL of methanol, vortexed, sonicated, and centrifuged. A 0.010-mL aliquot of the supernatant was removed for determination of radioactivity, and the remainder of the supernatant was transferred to an HPLC vial and stored at −80 °C.
(§1) A Finnigan Surveyor HPLC system (Thermo Fisher Scientific Inc., San Jose, CA, USA), consisting of an LC pump plus an autosampler and a UV–Vis plus detector, was used mostly for profiling (except the post-24-h plasma samples, which were analyzed using a Dionex HPLC system). A Phenomenex® Gemini® C18, 5-μm, 3.0 × 100-mm column (Phenomenex Inc., Torrance, CA, USA) was used along with a C-12 guard column (4 × 2 mm). LC conditions were as follows: solvent A was 10 mM ammonium bicarbonate in water (pH 10.0) and solvent B was 100% methanol and the flow rate was 0.8 mL/min. The following gradient was employed (B%): 0–5 min (20%), 32 min (42%), 33 min (60%), 55 min (70%), 56–60 min (95%), and 62–70 min (20%).
(§2) Reconstituted solvent extracts (0.050–0.10 mL) of plasma, urine, or feces were injected onto the HPLC column. The post-column eluate was split after UV detection into two streams (0.64 and 0.16 mL/min). The 0.64-mL stream was diverted to a fraction collector (Gilson FX 204; Gilson Medical Electronics, Middleton, WI, USA) to be collected in 96-well plates at 0.16 min/well (ScintiPlates; PerkinElmer Life Sciences, Shelton, CT, USA), and the 0.16-mL stream was directed to the mass spectrometer. The solvent in the 96-well plates was removed at 40 °C using a Genevac evaporator (Genevac, Inc., Stone Ridge, NY, USA).
(§3) The radioactivity counts per minute (CPM) in each well was determined using a MicroBeta scintillation counter (PerkinElmer Life and Analytical Sciences). The resulting CPM vs. time data were processed using Excel (Microsoft Corporation, Seattle, WA, USA). The CPM in each well was background-subtracted (using the average CPM values of the blank region of the HPLC run). Radiochromatographic profiles were obtained by plotting the resulting net CPM values against time after injection. Radioactive peaks in the chromatographic profiles were identified, and the radioactivity in each peak was summed and reported as a percentage of TRA in the HPLC run.

[3] = Metabolite profiling of plasma (HPLC-radiochromatography); type: in vivo, human; details: % of TRA
Description: For each subject, a 0–24 h pooled plasma sample was prepared according to the scheme outlined in the literature. In addition, several pooled plasma samples across all subjects were prepared at these time points: 5, 10, 12, […], and 48 h, and every 24 h thereafter until 240 h.
All pooled 0–24, 5, 10, 12, and 24 h plasma samples were processed as follows. […] The samples were vortexed for 30 min and centrifuged at 4500g at 4 °C for 6 min. The supernatants were transferred into new polypropylene tubes and kept on ice. The resulting plasma protein pellets were extracted twice to ensure good recovery and the extracts were combined. The combined extracts were loaded onto Ostro sample preparation plates (Waters Corporation, Milford, MA, USA), dried, eluted with 0.2 mL of cold acetonitrile, and all eluates were collected and evaporated under nitrogen (TurboVap LV; Caliper Life Sciences, Hopkinton, MA, USA). The dry residues were reconstituted in 0.1 mL of methanol, and a 0.005-mL aliquot was removed for determination of radioactivity. The remainder of the supernatants were transferred to high-performance liquid chromatography (HPLC) vials and stored at −80 °C until analysis.
Pooled post-24-h plasma samples were extracted using a slightly modified procedure. […] Appropriate volumes of formic acid were added to achieve a final concentration of 1%. Then, the samples were warmed to 37 °C and loaded to preconditioned Oasis HLB cartridges (Waters Corporation, Milford, MA, USA). These columns were then washed with water, dried under vacuum, and eluted with methanol. The eluates were collected and evaporated under nitrogen. The dry residues were reconstituted in 0.1 mL of methanol, and a 0.005-mL aliquot was removed for determination of radioactivity. The remainder of the supernatants were transferred to HPLC vials and stored at −80 °C until analysis.
as §1, §2, §3

[4] = Plasma pharmacokinetics of TRA, ponatinib and metabolites after a single oral 45-mg [14C]ponatinib dose
Description: The subject release criterion was defined as follows: the combined urine and fecal radioactivity excretion for two consecutive days should fall below 1% of the dose administered.
Detailed procedures on sample collection, storage, and shipment are described in Online Resource 1. […] Fecal homogenates were prepared by adding water (four times the feces weight) and homogenizing.
(§4) TRA analysis was carried out at ABC Laboratories. The radioactivity in plasma (duplicate per time point) and urine samples (triplicate per time point) was quantitated by direct counting in a Beckman LS6000SC or LS6500 liquid scintillation counter (PerkinElmer Life and Analytical Sciences, Boston, MA, USA). Whole blood (duplicate per time point) and fecal homogenate (triplicate per time point) samples were oxidized, and the resultant ^14CO2 was trapped in Carbosorb (Calgon Carbon Corporation, Pittsburgh, PA, USA) in combination with Permafluor, followed by liquid scintillation counting to determine the radioactivity. Individual samples were counted for 5 min for whole blood and fecal matrices, and 10 min for plasma and urine matrices. Predose blood, plasma, urine, and feces samples served as respective control samples to determine and subtract the background radioactivity in the analysis.
M14 was quantitated using a different LC/MS/MS method (Online Resource 2). The pharmacokinetic analysis was carried out using WinNonlin® v6.4 (Pharsight Corp., Mountain View, CA, USA).
Aliquots of 30 µl of calibration standards, quality controls, and incurred plasma samples were transferred into a 96-well plate. Then 150 µl of ice-cold acetonitrile containing 50 ng/ml of AP30376 (d6-AP24600, internal standard) were added. The 96-well plate was vortexed for 10 min and then centrifuged at 4750 rpm for 20 min at 4°C. 100 µl aliquots of the supernatants were transferred into another 96-well plate and the samples were analyzed by liquid chromatography tandem mass spectrometry.

[5] = Excretion and mass balance in urine and feces; type: in vivo, human
Text: Six healthy male volunteers, 25–45 years of age, with a mean body weight of 83.3 kg (range 64.5–94.4) and a mean body mass index of 26.9 kg/m^2 (range 20.2–29.9) participated in the study. […] The subject release criterion was defined as follows: the combined urine and fecal radioactivity excretion for two consecutive days should fall below 1% of the dose administered.
Detailed procedures on sample collection, storage, and shipment are described in Online Resource 1. […] Urine and feces collected from each subject were pooled at predose and every 24 h thereafter. Fecal homogenates were prepared by adding water (four times the feces weight) and homogenizing.
as §4
All urine voided was collected and stored in containers at 5±3 °C until the collection interval was completed. Subjects voided in the morning prior to study drug administration.
Multiple collections of urine during each collection interval from each individual subject were pooled. The urine samples from each collection interval were well mixed, accurately weighed, and assessed for its pH. A 100 ml sample from each collection interval from each subject was aliquoted into a separately labeled container to be sent to ABC Laboratories for radioactivity analysis. An approximately 10 ml sample from each collection interval from each subject on day 8 and each day thereafter was used for TRA analysis at Celerion (Lincoln, NE). All urine samples were kept frozen at −80 ± 15 °C.
Stool collections began approximately 24 h prior to drug administration until the end of the postdose sampling period. The 24 h predose samples were used as control samples for the radioactivity analysis and metabolite profiling. Feces were collected daily (24 h collection periods) until subjects were discharged from the clinical research unit.
All fecal samples were collected in polypropylene containers; toilet paper was collected separately. The weight of each sample was recorded. Multiple collections of feces during each collection interval from each individual subject were pooled. The feces samples were thoroughly homogenized with water (4X the weight of the feces). A 100 g sample was aliquoted into a separately labeled container to be sent to ABC Laboratories for radioactivity analysis. An approximately 10 g sample from each collection interval from each subject on day 8 and each day thereafter was used for TRA analysis at Celerion. All fecal homogenate samples were kept frozen at −80 ± 15 °C.

Structure (SMILES): Cc1ccc(C(=O)Nc2ccc(CN3CCNCC3)c(C(F)(F)F)c2)cc1C#Cc1cnc2cccnn12 [M42, 3-(imidazo[1,2-b]pyridazin-3-ylethynyl)-4-methyl-N-(4-(piperazin-1-ylmethyl)-3-(trifluoromethyl)phenyl)benzamide]
Matrix (in which the metabolite was found) [1]: P, U, F | % of total radioactive dose [2]: 8.3% | % Distribution in matrix ([2]; % of fecal TRA): 9.6% | % Distribution in plasma ([3]; 0–24 h pooled plasma): ~0.5–1.0% | % Distribution in plasma ([3]; 5 h pooled plasma): ~0.5–1.0% | % Distribution in plasma ([3]; 10 h pooled plasma): ~0.5–1.0% | % Distribution in plasma ([3]; 12 h pooled plasma): ~0.5–1.0% | % Distribution in plasma ([3]; 36 h pooled plasma): – (“–” values less than 0.5% are not reported) | % Distribution in plasma ([3]; 48 h pooled plasma): – (“–” values less than 0.5% are not reported) | % Distribution in plasma ([3]; 72 h pooled plasma): – (“–” values less than 0.5% are not reported) | % Distribution in plasma ([3]; 96 h pooled plasma): – (“–” values less than 0.5% are not reported) | plasma level at 144 h postdose ([4]; human plasma, 144 h postdose): at or below detectable limits | time postdose at which C max / maximal levels in plasma were observed ([4]; human plasma, single oral 45-mg dose, M23 by radiochromatography): 2 to 12 h | concentration at 144 h ([4]; male, human, plasma, oral, 45 mg): < 0.2 nM | AUC(0-inf) ([4]; male, human, plasma, po, 45 mg): 1.8 µM·h | AUC(0-t) ([4]; male, human, plasma, po, 45 mg): 1.61 µM·h | Cmax ([4]; male, human, plasma, po, 45 mg): 107 nM | Tmax ([4]; male, human, plasma, po, 45 mg): 2 h | half-life ([4]; male, human, plasma, po, 45 mg): 56 h

Structure (SMILES): CN1CCN(Cc2ccc(N)cc2C(F)(F)F)CC1 [M19, 4-((4-methylpiperazin-1-yl)methyl)-3-(trifluoromethyl)aniline]
detection in human samples (plasma, urine, feces) ([1]; in vivo): not observed in any human samples | detection in human samples (plasma, urine, feces) ([1]; male, human, in vivo): The amide hydrolysis also would result in an aniline metabolite M19 (AP24592). However, this metabolite was not detected in any matrices.

Structure (SMILES): CC(=O)Nc1ccc(CN2CCN(C)CC2)c(C(F)(F)F)c1 [M22]
detection in human samples (plasma, urine, feces) ([1]; MS traces): trace levels | Matrix (in which the metabolite was found) [1]: Trace: P, U, F

Now from value to molecule, other results behind:

Matrix (in which the metabolite was found) [1]: P, U, F | % Distribution in plasma ([3]; 0–24 h pooled plasma): ~0.5–1.0% | % Distribution in plasma ([3]; 5 h pooled plasma): ~0.5% | % Distribution in plasma ([3]; 10 h pooled plasma): ~0.5–1.0% | % Distribution in plasma ([3]; 12 h pooled plasma): ~0.5–1.0%
Structure (SMILES): Cc1ccc(C(=O)Nc2ccc(CN3CC[N+](C)([O-])CC3)c(C(F)(F)F)c2)cc1C#Cc1cnc2cccnn12 [M36, 4-(4-(3-(imidazo[1,2-b]pyridazin-3-ylethynyl)-4-methylbenzamido)-2-(trifluoromethyl)benzyl)-1-methylpiperazine 1-oxide]
% Distribution in plasma ([3]; 36 h pooled plasma): – (“–” values less than 0.5% are not reported) | % Distribution in plasma ([3]; 48 h pooled plasma): – (“–” values less than 0.5% are not reported) | % Distribution in plasma ([3]; 72 h pooled plasma): – (“–” values less than 0.5% are not reported) | % Distribution in plasma ([3]; 96 h pooled plasma): – (“–” values less than 0.5% are not reported)

share of total urinary TRA contained in the 0–72-h pool ([5]; 0–72 h): 84% | cumulative recovery in feces during 0–144 h, share of the TRA in feces ([5]; 0–144 h): 91% | dose recovered in feces ([5]; 0–336 h (days 0–14) postdose): 86.6% | dose recovered in urine ([5]; 0–336 h (days 0–14) postdose): 5.4% | total radioactive dose recovered (urine and feces) ([5]; 0–336 h postdose): 92%
Structure (SMILES): Cc1ccc([14C](=O)Nc2ccc(CN3CCN(C)CC3)c(C(F)(F)F)c2)cc1C#Cc1cnc2cccnn12 [[^14C]ponatinib]
